These compounds were tested on RSV A2 (assay: Screening for RSV inhibition using Viral ToxGlo assay (cytopathic effect inhibition in HEp-2 cells)). Details: human respiratory syncytial virus; RSV A2 in HEp-2 cells, MOI 0.5, 72h p.i., cytopathic effect inhibition relative to virus control, Viral ToxGlo luminescence.
Format: cell-based, Respiratory Syncytial Virus (RSV)
Description: Protocol for Screening Antiviral Compounds for RSV Inhibition and Cytotoxicity Using Viral ToxGlo Assay
HEp-2 cells were maintained in Eagle's minimum essential medium (EMEM) with Earle's BSS adjusted to contain 2 mM L-glutamine, 10% fetal bovine serum, 100 U/ml penicillin and 100 µg/ml streptomycin. For the purposes of the screening assay they were grown to 90% confluency, trypsinized and recovered. The trypsin was neutralised with cell culture media and cells were centrifuged at 150×g for 5 minutes before discarding the supernatant and resuspending cell pellet in assay media (EMEM with Earle's BSS adjusted to contain 2 mM L-glutamine, 2% fetal bovine serum and 100 U/ml penicillin and 100 µg/ml streptomycin). The cells were seeded into white clear-bottomed cell culture plates at a density of 1.5×10^4 cells/well in 50 μl and 4×10^3 cells/well in 25 μl for 96 well plates and 384 well plates respectively. For the media/background control column assay media only was added. Cell plates were placed in a humid chamber and incubated overnight at 37° C./5% CO2. After overnight incubation cells were checked for confluency and healthy appearance.
Test articles were made up at 10× test concentration in a maximum DMSO concentration of 10% (final assay concentration maximal 1% DMSO) and added to the cell plates in volumes of […] for 96 well plates and 5 μl for 384 well plates. For cell control and virus control wells the test article solvent only was added. Virus or assay media for cytotoxicity test wells and media/cell control wells was added immediately after test articles at an MOI of […] for 96 and 384 well plates respectively. Virus suspension was prepared by thawing RSV A2 frozen stocks and diluting to the required concentration of plaque forming units in assay media on ice.
Cell plates were further incubated inside a humid chamber for 72h p.i at 37° C./5% CO2. After the incubation period cells were observed under the microscope to check for characteristic cytopathic effect in virus control wells and healthy cells in the cell control wells. After plates were adjusted to room temperature 20/40 μl Viral ToxGlo (Promega) was added to each well of the 384/96 well cell plates. Plates were incubated at room temperature, protected from light on a plate rocker for 20 minutes before measuring the luminescence on a spectrophotometer (Biotek Synergy HTX).

Structure (SMILES)	EC50 [nM]
CC(C)NC(=O)c1cccc(Nc2ccc(C(=O)/N=C3\NCCN3C3CC3)cc2C2CC2)c1 [Compound 43, 3-cyclopropyl-N-[(2E)-1-cyclopropylimidazolidin-2-ylidene]-4-({3-[(propan-2-yl)carbamoyl]phenyl}amino)benzamide]	79.8
CC(C)CCNC(=O)c1cccc(Nc2ccc(C(=O)N=C3NCCN3)cc2C(C)(C)O)c1 [Compound 44, 3-(2-hydroxypropan-2-yl)-N-[(2E)-imidazolidin-2-ylidene]-4-({3-[(3-methylbutyl)carbamoyl]phenyl}amino)benzamide]	90.4
CC(C)(O)c1cc(C(=O)N=C2NCCN2)ccc1Nc1cccc(C(=O)N2CCOCC2)c1Cl [Compound 45, 4-{[2-chloro-3-(morpholine-4-carbonyl)phenyl]amino}-3-(2-hydroxypropan-2-yl)-N-(imidazolidin-2-ylidene)benzamide]	91.5
CC(=O)N1CCN/C1=N\C(=O)c1ccc(Nc2cccc(OCCCC3CCCCC3)c2)c(C2CC2)c1 [Compound 46, N-[(2E)-1-acetylimidazolidin-2-ylidene]-4-{[3-(3-cyclohexylpropoxy)phenyl]amino}-3-cyclopropylbenzamide]	104
CC1(NC(=O)c2cc(F)cc(Nc3ccc(C(=O)N=C4NCCN4)cc3C3CC3)c2)CC1 [Compound 47, 3-cyclopropyl-4-({3-fluoro-5-[(1-methylcyclopropyl)carbamoyl]phenyl}amino)-N-[(2Z)-imidazolidin-2-ylidene]benzamide]	113
CC(C)(C)c1cc(C(=O)N=C2NCCN2)ccc1Nc1cccc(C(=O)NCCC2CCOC2)c1 (centres unmarked) [Compound 48, 3-tert-butyl-N-[(2E)-imidazolidin-2-ylidene]-4-[(3-{[2-(oxolan-3-yl)ethyl]carbamoyl}phenyl)amino]benzamide]	117
CC(C)NC(=O)c1cccc(Nc2ccc(C(=O)/N=C3\NCC(=O)N3)cc2C(C)(C)C)c1 [Compound 49, 3-tert-butyl-N-[(2E)-4-oxoimidazolidin-2-ylidene]-4-({3-[(propan-2-yl)carbamoyl]phenyl}amino)benzamide]	118
O=C(N=C1NCCN1)c1ccc(Nc2cccc(C(=O)NC3CCOCC3)c2Cl)c(C2CC2)c1 [Compound 50, 4-({2-chloro-3-[(oxan-4-yl)carbamoyl]phenyl}amino)-3-cyclopropyl-N-[(2E)-imidazolidin-2-ylidene]benzamide]	136
O=C(N=C1NCCN1)c1ccc(Nc2cccc(OCC3COCCO3)c2)c(C2CCCC2)c1 (centres unmarked) [Compound 51, 3-cyclopentyl-4-({3-[(1,4-dioxan-2-yl)methoxy]phenyl}amino)-N-[(2E)-imidazolidin-2-ylidene]benzamide]	140
CC(C)(C)c1cc(C(=O)N=C2NCCN2)ccc1Nc1cccc(OCC2COCCO2)c1 (centres unmarked) [Compound 52, 3-tert-butyl-4-({3-[(1,4-dioxan-2-yl)methoxy]phenyl}amino)-N-[(2E)-imidazolidin-2-ylidene]benzamide]	142
O=C(N=C1NCCN1)c1ccc(Nc2cccc(C(=O)NC3(C(F)(F)F)CC3)c2)c(C2CC2)c1 [Compound 53, 3-cyclopropyl-N-[(2Z)-imidazolidin-2-ylidene]-4-[(3-{[1-(trifluoromethyl)cyclopropyl]carbamoyl}phenyl)amino]benzamide]	153
CC(C)NC(=O)c1ccccc1Nc1ccc(C(=O)N=C2NCCN2)cc1C(C)(C)C [Compound 54, 3-tert-butyl-N-[(2E)-imidazolidin-2-ylidene]-4-({2-[(propan-2-yl)carbamoyl]phenyl}amino)benzamide]	166
CC(C)CCNC(=O)c1ccnc(Nc2ccc(C(=O)N=C3NCCN3)cc2C(C)(C)C)c1 [Compound 55, 2-[(2-tert-butyl-4-{[(2E)-imidazolidin-2-ylidene]carbamoyl}phenyl)amino]-N-(3-methylbutyl)pyridine-4-carboxamide]	168
CC(C)CNC(=O)c1ccccc1Nc1ccc(C(=O)N=C2NCCN2)cc1C(C)(C)C [Compound 56, 3-tert-butyl-N-[(2E)-imidazolidin-2-ylidene]-4-({2-[(2-methylpropyl)carbamoyl]phenyl}amino)benzamide]	174
Cc1c(Nc2ccc(C(=O)N=C3NCCN3)cc2C2CC2)cccc1-c1ncc(Cl)[nH]1 [Compound 57, 4-{[3-(5-chloro-1H-imidazol-2-yl)-2-methylphenyl]amino}-3-cyclopropyl-N-[(2Z)-imidazolidin-2-ylidene]benzamide]	200
O=C(N=C1NCCN1)c1ccc(Nc2cccc(C(=O)NCCC3CCOCC3)c2)c(C2CC2)c1 [Compound 58, 3-cyclopropyl-N-[(2E)-imidazolidin-2-ylidene]-4-[(3-{[2-(oxan-4-yl)ethyl]carbamoyl}phenyl)amino]benzamide]	207
CC(C)NC(=O)c1cccc(Nc2ccc(C(=O)N=C3NCCN3)cc2C2CCOC2)c1 (centres unmarked) [Compound 59, N-[(2E)-imidazolidin-2-ylidene]-3-(oxolan-3-yl)-4-({3-[(propan-2-yl)carbamoyl]phenyl}amino)benzamide]	237
CC(C)=CCn1nnnc1-c1cccc(Nc2ccc(C(=O)N=C3NCCN3)cc2C2CC2)c1 [Compound 60, 3-cyclopropyl-N-[(2Z)-imidazolidin-2-ylidene]-4-({3-[1-(3-methylbut-2-en-1-yl)-1H-1,2,3,4-tetrazol-5-yl]phenyl}amino)benzamide]	241
CC(C)NC(=O)c1cccc(Nc2ccc(C(=O)/N=C3\NCC(=O)N3C)cc2C2CC2)c1 [Compound 61, 3-cyclopropyl-N-[(2E)-1-methyl-5-oxoimidazolidin-2-ylidene]-4-({3-[(propan-2-yl)carbamoyl]phenyl}amino)benzamide]	516
CC(C)CCNC(=O)c1ccccc1Nc1ccc(C(=O)N=C2NCCN2)cc1C1CC1 [Compound 62, 3-cyclopropyl-N-[(2E)-imidazolidin-2-ylidene]-4-({2-[(3-methylbutyl)carbamoyl]phenyl}amino)benzamide]	641
CC(C)C(=O)Nc1cccc(Nc2ccc(C(=O)N=C3NCCN3)cc2C2CCOC2)c1 (centres unmarked) [Compound 63, N-[(2E)-imidazolidin-2-ylidene]-4-{[3-(2-methylpropanamido)phenyl]amino}-3-(oxolan-3-yl)benzamide]	727
Cc1c(Nc2ccc(C(=O)N=C3NCCN3)cc2C2CC2)cccc1C(=O)NC1(C#N)CC1 [Compound 64, 4-({3-[(1-cyanocyclopropyl)carbamoyl]-2-methylphenyl}amino)-3-cyclopropyl-N-[(2Z)-imidazolidin-2-ylidene]benzamide]	950
CC(C)NC(=O)c1cccc(Nc2ccc(C(=O)N=C3NCCN3)cc2C2CCOCC2)c1 [Compound 69, N-[(2Z)-imidazolidin-2-ylidene]-3-(oxan-4-yl)-4-({3-[(propan-2-yl)carbamoyl]phenyl}amino)benzamide]	1130
CC(C)NC(=O)c1ccccc1Nc1ccc(C(=O)N=C2NCCN2)cc1C1CC1 [Compound 70, 3-cyclopropyl-N-[(2E)-imidazolidin-2-ylidene]-4-({2-[(propan-2-yl)carbamoyl]phenyl}amino)benzamide]	1150
CC(C)NC(=O)c1cccc(Nc2ccc(C(=O)N=C3N(C)CCN3C)cc2C(C)(C)C)c1 [Compound 71, 3-tert-butyl-N-[(2Z)-1,3-dimethylimidazolidin-2-ylidene]-4-({3-[(propan-2-yl)carbamoyl]phenyl}amino)benzamide]	1170
CC(C)C(=O)Nc1cccc(Nc2ccc(C(=O)N=C3NCCN3)cc2Cl)c1 [Compound 72, 3-chloro-N-[(2E)-imidazolidin-2-ylidene]-4-{[3-(2-methylpropanamido)phenyl]amino}benzamide]	1230
O=C(N=C1NCCN1)c1ccc(Nc2cc(F)cc(C(=O)N3CCOCC3)c2)c(C2CC2)c1 [Compound 73, 3-cyclopropyl-4-{[3-fluoro-5-(morpholine-4-carbonyl)phenyl]amino}-N-[(2Z)-imidazolidin-2-ylidene]benzamide]	1290
CC(C)(C)c1cc(C(=O)N=C2NCCN2)ccc1Nc1cc(C(=O)NCCC2CCOCC2)ccn1 [Compound 74, 2-[(2-tert-butyl-4-{[(2E)-imidazolidin-2-ylidene]carbamoyl}phenyl)amino]-N-[2-(oxan-4-yl)ethyl]pyridine-4-carboxamide]	1310
CC(C)NC(=O)c1cccc(Nc2c(F)cc(C(=O)N=C3NCCN3)cc2C2CC2)c1 [Compound 91, 3-cyclopropyl-5-fluoro-N-[(2Z)-imidazolidin-2-ylidene]-4-({3-[(propan-2-yl)carbamoyl]phenyl}amino)benzamide]	2

— patent publication US12617756B2 (ABIVAX, priority 2019, dated 2026)
